Columns and labels:
pUCp53 DNA = experiment: PCR with additional nucleotides (FIG. 2); assay type: biochemical; details: labeled nucleotide replaces the normal dNTP; 0.2 mM MnCl2; primers P53SNP22C-51F and P53SNP22G131R
Protocol: (§1) Polymerase chain reaction (PCR) mixtures (20 μl) contained 20 mM Tris-HCL (pH 8.75), 10 mM KCL, 10 mM (NH4)2SO4, 2 mM MgSO4, 1 mg/ml bovine serum albumin and 0.1% (v/v) Triton X-100. The final nucleotide concentrations were 20 μM each, and 2.5 units of the DNA polymerase were used for each reaction. The initial template DNA (1–5 ng) was either pUC18 or pUCp53 (Amersham Biosciences). The initial amount of primer was 2 μmol each, and 2.5 units of the indicated DNA polymerase was used. Reactions were carried out for 15 thermal cycles of 90° C., 30 sec.; 55° C., 60 sec.; and 72° C., 300 sec. Most PCR reactions also included MnCl2 at a final concentration of 0.08–0.2 mM. Reaction products were loaded onto 1.6% agarose gels. The gels were stained with SYBR Gold (Molecular Probes) according to the manufacturers' instructions and scanned at 532 nm using a Typhoon fluorescence scanner (Amersham Biosciences). Gel size markers were a 100 bp ladder (Amersham Biosciences).
(§2) For both figures, the amplification reaction loaded in lane 1 was performed with normal dNTPs and without MnCl2. For the lanes marked 2, the dTTP was replaced by dT4P-DDAO and the reactions contained 0.2 mM MnCl2. For the lanes marked 3, the dGTP was replaced by dG4P-DDAO, and for the lanes marked 4, the dGTP was replaced by dG4P-MeCoumarin again with 0.2 mM MnCl2.

pUC18 DNA = experiment: PCR with additional nucleotides, template and primers (FIG. 3); assay type: biochemical; details: labeled nucleotide replaces the normal dNTP; 0.2 mM MnCl2; −21 Forward and −28 Reverse primers
Protocol: as §1, §2

Taq DNA polymerase = Taq DNA polymerase (Thermus aquaticus, UniProt P19821); experiment: PCR amplification of pUCp53 target with terminal-phosphate labeled nucleotide, gel and fluorescence detection; assay type: biochemical; details: lane 2 of FIG. 1, 0.2 mM MnCl2
Taq DNA polymerase, sequence (P19821 whole entry): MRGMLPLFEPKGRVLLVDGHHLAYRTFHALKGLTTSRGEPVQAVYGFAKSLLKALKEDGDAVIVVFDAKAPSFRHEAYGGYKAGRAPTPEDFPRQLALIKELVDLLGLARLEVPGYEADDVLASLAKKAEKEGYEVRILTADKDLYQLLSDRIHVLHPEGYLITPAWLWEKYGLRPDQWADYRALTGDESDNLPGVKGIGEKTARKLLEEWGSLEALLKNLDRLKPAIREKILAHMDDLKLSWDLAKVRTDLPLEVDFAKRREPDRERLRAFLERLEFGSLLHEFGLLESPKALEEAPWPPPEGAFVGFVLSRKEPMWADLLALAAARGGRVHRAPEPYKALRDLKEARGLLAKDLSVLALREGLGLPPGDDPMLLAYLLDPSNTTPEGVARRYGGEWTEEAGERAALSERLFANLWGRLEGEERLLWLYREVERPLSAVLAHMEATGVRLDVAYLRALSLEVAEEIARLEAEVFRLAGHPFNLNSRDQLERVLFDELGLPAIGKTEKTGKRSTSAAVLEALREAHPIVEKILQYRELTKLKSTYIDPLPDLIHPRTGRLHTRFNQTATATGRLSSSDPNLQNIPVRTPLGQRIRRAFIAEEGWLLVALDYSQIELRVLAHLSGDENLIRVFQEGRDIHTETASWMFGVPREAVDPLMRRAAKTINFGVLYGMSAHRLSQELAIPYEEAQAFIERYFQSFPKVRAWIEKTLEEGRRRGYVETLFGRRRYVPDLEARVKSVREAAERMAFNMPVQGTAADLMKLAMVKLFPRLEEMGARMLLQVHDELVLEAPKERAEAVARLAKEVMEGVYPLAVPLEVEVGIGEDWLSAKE
Protocol: Polymerase chain reaction (PCR) mixtures (20 μl) contained 20 mM Tris-HCL (pH 8.75), 10 mM KCL, 10 mM (NH4)2SO4, 2 mM MgSO4, 1 mg/ml bovine serum albumin and 0.1% (v/v) Triton X-100. The final nucleotide concentrations were 20 μM each, and 2.5 units of the DNA polymerase were used for each reaction. The initial template DNA (1–5 ng) was either pUC18 or pUCp53 (Amersham Biosciences). The initial amount of primer was 2 μmol each, and 2.5 units of the indicated DNA polymerase was used. Reactions were carried out for 15 thermal cycles of 90° C., 30 sec.; 55° C., 60 sec.; and 72° C., 300 sec. Most PCR reactions also included MnCl2 at a final concentration of 0.08–0.2 mM. Reaction products were loaded onto 1.6% agarose gels. The gels were stained with SYBR Gold (Molecular Probes) according to the manufacturers' instructions and scanned at 532 nm using a Typhoon fluorescence scanner (Amersham Biosciences). Gel size markers were a 100 bp ladder (Amersham Biosciences). […]
(§3) Then the fluorescence was determined using a FarCYte fluorescence plate reader (Amersham Biosciences) using 650 nm excitation and 670 nm emission. […] The reaction product of Tba exo-DNA polymerase gave a reading of 31,000 fluorescence units.

Tba exo-DNA polymerase = experiment: as above; assay type: biochemical, Thermococcus barosii
Protocol: as §1
The DNA polymerases used for these experiments included Taq DNA polymerase, Thermo Sequenase DNA polymerase (Amersham Biosciences), Tba exo-DNA polymerase (from Thermococcus barosii, U.S. Pat. No. 5,602,011 with D141A and E143A amino acid substitutions U.S. Pat. No. 5,882,904), Pfu DNA polymerase (Strategene), KOD XL DNA polymerase (Novagen) and Deep Vent DNA polymerase (New England BioLabs).
For this experiment, either Taq DNA polymerase (lanes 1–3, 12), Thermo Sequenase (Amersham Biosciences) DNA polymerase (lanes 7–9, 11) or Tba exo-DNA polymerase (lanes 4–6, 10) were used. The MnCl2 concentration was 0 mM for the reactions resolved in lanes 1, 4, 7 and 10–12; 0.2 mM in lanes 2, 5, and 8; 0.4 mM in lanes 3, 6 and 9. For all samples, the template DNA was pUCp53 and the primers were P53SNP22C-51F and P53SNP22G131R. […]
as §3

KOD XL DNA polymerase = experiment: PCR amplification of pUCp53 target with terminal-phosphate labeled nucleotide; assay type: biochemical; details: same conditions as FIG. 1, DDAO-dT4P replaced dTTP
Protocol: as §1
(§4) The DNA polymerases used for these experiments included Taq DNA polymerase, Thermo Sequenase DNA polymerase (Amersham Biosciences), Tba exo-DNA polymerase (from Thermococcus barosii, U.S. Pat. No. 5,602,011 with D141A and E143A amino acid substitutions U.S. Pat. No. 5,882,904), Pfu DNA polymerase (Strategene), KOD XL DNA polymerase (Novagen) and Deep Vent DNA polymerase (New England BioLabs). […]

Pfu DNA polymerase = molecular target: T1, Pfu DNA polymerase (Pyrococcus furiosus, UniProt P61875); experiment: as above; assay type: biochemical; details: same conditions as FIG. 1, DDAO-dT4P replaced dTTP
T1 construct: purchased Strategene (so in the source); Stratagene)
T1 sequence (P61875 1-775): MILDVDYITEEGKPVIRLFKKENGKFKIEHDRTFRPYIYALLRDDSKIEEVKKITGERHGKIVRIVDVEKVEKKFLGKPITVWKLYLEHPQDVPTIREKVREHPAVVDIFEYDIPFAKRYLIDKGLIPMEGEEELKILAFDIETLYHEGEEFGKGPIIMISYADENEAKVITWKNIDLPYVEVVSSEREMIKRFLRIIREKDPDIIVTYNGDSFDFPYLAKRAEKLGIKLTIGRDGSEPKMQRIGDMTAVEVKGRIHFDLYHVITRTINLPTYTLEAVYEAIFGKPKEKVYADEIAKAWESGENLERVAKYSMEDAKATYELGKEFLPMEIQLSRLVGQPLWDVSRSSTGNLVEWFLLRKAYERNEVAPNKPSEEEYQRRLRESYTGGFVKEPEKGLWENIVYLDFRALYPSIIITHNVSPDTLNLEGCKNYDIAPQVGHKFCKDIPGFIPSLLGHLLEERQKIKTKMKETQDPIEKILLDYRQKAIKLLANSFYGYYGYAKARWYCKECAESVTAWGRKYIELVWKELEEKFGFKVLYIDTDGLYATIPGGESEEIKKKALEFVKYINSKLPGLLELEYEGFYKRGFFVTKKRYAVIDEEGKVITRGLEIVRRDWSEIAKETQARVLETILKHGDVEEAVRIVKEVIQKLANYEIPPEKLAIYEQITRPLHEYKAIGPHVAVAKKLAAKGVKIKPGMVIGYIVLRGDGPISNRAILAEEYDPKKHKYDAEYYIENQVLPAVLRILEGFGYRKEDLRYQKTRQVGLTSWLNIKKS
Protocol: as §1, §4

Phi29 DNA polymerase = molecular target: T2, Phi29 DNA polymerase (Bacillus phage phi29, UniProt P03680); experiment: Rolling circle amplification of salmon sperm chromosomal DNA with terminal-phosphate labeled/blocked nucleoside polyphosphates; assay type: biochemical; details: 50 μm dT4P-DDAO with dA4P-Me, dG4P-Me, dC4P-Me, BAP, 30° C.
T2 sequence (P03680 1-575): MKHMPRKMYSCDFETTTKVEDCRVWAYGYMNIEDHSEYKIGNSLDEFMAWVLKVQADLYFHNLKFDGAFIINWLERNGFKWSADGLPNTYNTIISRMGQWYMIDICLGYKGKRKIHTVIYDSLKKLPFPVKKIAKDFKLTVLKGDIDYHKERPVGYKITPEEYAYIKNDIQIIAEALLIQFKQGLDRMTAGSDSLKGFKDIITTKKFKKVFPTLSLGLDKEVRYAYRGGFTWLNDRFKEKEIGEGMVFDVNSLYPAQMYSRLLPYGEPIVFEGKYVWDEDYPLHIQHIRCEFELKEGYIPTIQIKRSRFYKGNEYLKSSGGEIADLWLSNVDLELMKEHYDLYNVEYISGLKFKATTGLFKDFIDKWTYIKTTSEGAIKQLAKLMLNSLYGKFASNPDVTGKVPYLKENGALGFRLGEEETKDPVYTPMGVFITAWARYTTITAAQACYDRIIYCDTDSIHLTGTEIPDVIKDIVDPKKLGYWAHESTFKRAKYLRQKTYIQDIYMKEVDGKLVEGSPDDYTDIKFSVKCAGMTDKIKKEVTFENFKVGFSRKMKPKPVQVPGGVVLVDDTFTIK
Protocol: Varying amounts of denatured salmon sperm chromosomal DNA was taken in 25 mM Tris: borate buffer, pH 8.0, containing 5 mM ammonium sulfate, 75 mM NaCl, 5 mM MgCl2, 1 mM MnSO4, 0.01% Tween-20, 400 ng Phi29 DNA polymerase, 40 μm nuclease resistant random hexamers, 0.03 units of BAP and 50 μm each of dA4P-Me, dG4P-Me, dC4P-Me and dT4P-DDAO. Reactions were incubated at 30° C. in a Tecan fluorescent plate reader and were read every five minutes at excitation and emission wavelengths optimized for DDAO. Raw fluorescence counts are plotted as a function of time.

T. ba polymerase = experiment: PCR amplification with terminal-phosphate labeled nucleoside polyphosphates in the presence of stabilizing additives (FIG. 6); assay type: biochemical, Thermococcus barosii; details: 10–25 mM salt; dA4P-Me, dT4P-Me, dC4P-Me, dG4P-FlEt; 0.25 mM MnCl2; M13 DNA; 35 cycles
Protocol: Polymerase chain reaction (PCR) mixtures (20 μl) contained 25 mM Hepes (pH 8.1), 10 mM KCl, 2 mM MgSO4, 0.25 mM MnCl2, 1 mg/ml bovine serum albumin, 0.01% (v/v) Tween-20 and 10–25 mM salt as shown in FIG. 6. Each sample also contained 20 μm each of dA4P-Me, dT4P-Me, dC4P-Me, 200 μm dG4P-FlEt, 0.006 units/μl BAP, 2 units of T. ba polymerase, 0.1 μm −40 M13 forward primer, 0.1 μm −28 M13 reverse primer and 0.2 ng M13 DNA. In addition to the terminal-phosphate labeled nucleotide, terminal methyl-blocked dNTP's were used instead of normal dNTP's to prevent degradation by BAP (phosphatase). Latter is required for signal generation from dye-polyphosphate after the nucleotide is incorporated into DNA by polymerase. Reactions were carried out for 35 thermal cycles of 90° C., 30 sec.; 55° C., 30 sec.; and 65° C., 300 sec. Reaction products were loaded onto 1.6% agarose gels. The gels were stained with SYBR Gold (Molecular Probes) according to the manufacturers' instructions and scanned at 532 nm using a Typhoon fluorescence scanner (Amersham Biosciences). Gel size markers were a 100 bp ladder (Amersham Biosciences).

[1] = Non-enzymatic hydrolysis of dT4P-DDAO in the presence of MnCl2, effect of other salts (FIG. 5); details: 10 or 25 mM salt; 0.5 mM MnCl2; 25 mM Hepes pH 8.1; 95° C. for 60 minutes
Protocol: Twenty μl of 25 mM Hepes, pH 8.1, containing 0.5 mM MnCl2, 1 μm dT4P-DDAO and 10 or 25 mM inorganic or organic salt (see FIG. 5) was heated at 95° C. for 60 minutes. 4 μl of each sample was treated with BAP as described above and read on Tecan ultra plate reader. An unheated sample with MnCl2 (water lane) and a heated sample without Hepes and MnCl2 were used as controls. Fluorescence counts were converted into % degradation as described above.

CC1(C)C2=C(Cl)C(=O)C(Cl)=CC2=Nc2ccc(OP(=O)(O)OP(=O)(O)OP(=O)(O)OP(=O)(O)OC[C@H]3OC(n4cnc5c(=O)[nH]c(N)nc54)CC3O)cc21 (stereo partly drawn) [dG4P-DDAO, δ-9H(1,3-dichloro-9,9-dimethylacridin-2-one-7-yl)-deoxyguanosine-5′-tetraphosphate]
PCR amplification product on gel (pUCp53 DNA): successfully produced product of the expected size | PCR amplification product on gel (pUC18 DNA): successfully produced product of the expected size

Cc1cc(=O)oc2cc(OP(=O)(O)OP(=O)(O)OP(=O)(O)OP(=O)(O)OC[C@H]3O[C@@H](n4cnc5c(=O)[nH]c(N)nc54)C[C@@H]3O)ccc12 [dG4P-MeCoumarin, 2′-Deoxyguanosine-5′-(δ-7-(4-methylumbelliferone)) tetraphosphate]
PCR amplification product on gel (pUCp53 DNA): successfully produced product of the expected size | PCR amplification product on gel (pUC18 DNA): successfully produced product of the expected size

Cc1cn([C@H]2CC(O)[C@@H](COP(=O)(O)OP(=O)(O)OP(=O)(O)OP(=O)(O)Oc3ccc4c(c3)C(C)(C)C3=C(Cl)C(=O)C(Cl)=CC3=N4)O2)c(=O)[nH]c1=O (stereo partly drawn) [dT4P-DDAO, δ-9H(1,3-dichloro-9,9-dimethylacridin-2-one-7-yl)-deoxythymidine-5′-tetraphosphate]
PCR product (Taq DNA polymerase; DDAO-dT4P replaced dTTP): little or no detectable PCR product | fluorescence reading of PCR reaction product after shrimp alkaline phosphatase (Taq DNA polymerase; 650 nm excitation, 670 nm emission): 5500 fluorescence units | increase of PCR yield in the presence of MnCl2 (Tba exo-DNA polymerase; 0.2–0.4 mM MnCl2 versus 0 mM, DDAO-dT4P replaced dTTP): at least 5 fold | PCR product on agarose gel (Tba exo-DNA polymerase; DDAO-dT4P replaced dTTP, pUCp53 template, 15 thermal cycles, FIG. 1): significant amounts of PCR product were made | fluorescence reading of PCR reaction product after shrimp alkaline phosphatase (Tba exo-DNA polymerase; lane 5 of FIG. 1, 0.2 mM MnCl2, 650 nm excitation, 670 nm emission): 31,000 fluorescence units | PCR product (KOD XL DNA polymerase): PCR product is made | PCR product (Pfu DNA polymerase): PCR product is made | rate of product formation (slope 20–40 minutes) versus amount of input DNA (Phi29 DNA polymerase; FIG. 10): linear correlation | fluorescence signal (Phi29 DNA polymerase; absence of input DNA, FIG. 9): no signal is produced | PCR amplification product on gel (pUCp53 DNA): successfully produced product of the expected size | PCR amplification product on gel (pUC18 DNA): successfully produced product of the expected size

O=C(O)CP(=O)(O)O [phosphonoacetate]
PCR product formation in the presence of the additive (T. ba polymerase): No product formed | stabilization of dT4P-DDAO (% degradation) [1]: stabilize the nucleotide

CCCS(=O)(=O)O [propane sulfonate]
stabilization of dT4P-DDAO (% degradation) [1]: minimal

[Na+].[Na+].[O]=[Mo](=[O])([O-])[O-] [sodium molybdate]
PCR product formation in the presence of the additive (T. ba polymerase): PCR product was separated

[Na+].[Na+].[O]=[W](=[O])([O-])[O-] [sodium tungstate]
PCR product formation in the presence of the additive (T. ba polymerase): PCR product was separated

sodium vanadate
PCR product formation in the presence of the additive (T. ba polymerase): No product formed

— patent US7125671B2, “Nucleic acid amplification with terminal-phosphate labeled nucleotides” (GE Healthcare Bio-Sciences Corp., priority 2003, dated 2006)
